Measured values: patent publication US4469689A, “Sulfonate containing ester prodrugs of corticosteroids” (The Upjohn Company, priority 1983, dated 1984)
Counter-ions that a name gives are not always drawn.

Legend:
mice = settings: M. Kawamura et al., Yakugaku Zasshi, 91, 871 (1971); cited from earlier work
[1] = hydrolysis of dilute aqueous solutions, t90% estimated from hydrolysis rate constants at 25° C. (Table I); format: physicochemical; settings: pH 4.75 (pH of optimum stability), dilute aqueous solution
Protocol: From the hydrolysis rate constants determined at 25° C. at various pH vlaues for dilute aqueous solutions of the compounds of the invention, estimates of t90% (time for 10% hydrolysis) may be calculated.

[2] = base catalyzed hydrolysis rate in concentrated versus dilute solution; format: physicochemical; settings: 0.267 M vs 5×10^-4 M
Text: The actual shelf-life of formulations of the above compounds would be expected to differ fom the above estimates for two reasons: (1) The solubility of the parent corticosteroid formed on hydrolysis may be exceeded prior to 10% degradation of the ester. Micelle formation by the intact prodrugs of Formula I results in solubilization of free corticosteroid thereby prolonging shelf-life. The degree of solubilization varies with the ester concentration, nature of the pro-moiety, and the structure of the corticosteroid. (2) Micelle formation by the intact prodrug in concentrated solutions results in stabilization of the ester linkage toward base catalyzed hydrolysis. For example, the base catalyzed hydrolysis rate in a 0.267 M solution of the compound of Example 1 is less than one-seventh the rate in a 5×10^-4 M solution.

[3] = background statement; cited from earlier work

In the case of `C[C@]12CCC(=O)C=C1CC[C@@H]1[C@@H]2[C@@H](O)C[C@@]2(C)[C@H]1CC[C@]2(O)C(=O)COS(=O)(=O)O` [21-sulfate of hydrocortisone], the activity in mice (mice) is given as “inactive”.
For `C[C@H]1C[C@@H]2[C@H]([C@@H](O)C[C@@]3(C)[C@H]2CC[C@]3(O)C(=O)COC(=O)CCCCCS(=O)(=O)O)[C@@]2(C)C=CC(=O)C=C12` [Example 1, 6α-Methylprednisolone, 21-(6-sulfohexanoate), sodium salt], the “t90% (time for 10% hydrolysis)” value [1] was 2.7 years and the “base catalyzed hydrolysis rate in a 0.267 M solution relative to the rate in a 5×10^-4 M solution” value [2] was “less than one-seventh”.
With `C[C@H]1C[C@@H]2[C@H]([C@@H](O)C[C@@]3(C)[C@H]2CC[C@]3(O)C(=O)COC(=O)CCCCCCCCCCS(=O)(=O)O)[C@@]2(C)C=CC(=O)C=C12` [Example 2, 6α-Methylprednisolone, 21-(11-sulfohendecanoate), sodium salt] the “t90% (time for 10% hydrolysis)” value [1] was 3.0 years.
For `C[C@]12C=CC(=O)C=C1CC[C@@H]1[C@@H]2C(=O)C[C@@]2(C)[C@H]1CC[C@]2(O)C(=O)CO` [prednisone], the water solubility [3] is listed as “generally poorly water soluble”.
